Data reported in US20210106574A1, “Methods of Treating Cancer” (Tesaro, Inc., priority 2017, published 2021).
Where a name gives a salt, the structure may show the parent alone. Read-outs that look alike come from different tables or passages of the source.

Tests used:
[1] = tested on: HRR11 KO isogenic Dld-1 cell lines; settings: bi-allelic mutations in BRCA1, BRCA2, PALB2 and ATM (FIG. 5)
Description: CRISPR/Cas9 technology was used to knock-out either the single or both alleles of 11 clinically-relevant HR genes in two different genetic backgrounds, using Dld-1 and HeLa cell lines. […] Compounds were added 24 h after cell seeding, and then every 3- to 4-days (2-times a week) during the incubation period (for 13-days incubation period).

[2] = tested on: cancer cell lines silenced for or carrying mutations of BRCA-1 or BRCA-2; Ewing's sarcoma, ALL, NSCLC, SCLC and ATM-inactivated tumor cell lines; settings: cell lines silenced for BRCA-1 or BRCA-2 or carrying BRCA-1 or BRCA-2 mutations compared to wild type counterparts; cited from earlier work
HRR mutant PDX models = tested on: HRR mutant PDX models
Description: The relative contribution of the loss of BRCA and non-BRCA HRR genes to PARP synthetic lethality in additional indications other than ovarian and breast was also evaluated. To this end, CRISPR/Cas9 technology was utilized to knock-out either the single or both alleles of 11 clinically-relevant HR genes in two different genetic backgrounds.

PARP activity = settings: stimulated by hydrogen peroxide, various cell lines, cited from earlier work
[3] = tested on: platinum-sensitive recurrent ovarian cancer patients
Description: Two cohorts were treated: the germline BRCA mutant positive cohort (gBRCAmut) and the non-germline BRCA cohort (non-gBRCAmut). […] Patients in this cohort were germline BRCA mutation carriers as assessed by the FDA-approved Integrated BRACAnalysis test. Patients in the non-gBRCAmut were negative in the FDA-approved Integrated BRACAnalysis test.
This objective is independently evaluated in a cohort of patients with germline BRCA mutation (gBRCAmut) and in a cohort of patients who have high grade serous or high grade predominantly serous histology but without such gBRCA mutations (non-gBRCAmut). […] Accordingly, HRD is used as a tumor biomarker classifier to be evaluated.
Study treatment was dispensed to patients on Day 1 and every cycle (28 days) thereafter until the patient discontinued study treatment. Study treatment was administered orally once daily continuously. Three capsules of 100 mg strength were taken at each dose administration. Clinic visits occurred in each cycle (every 4 weeks 3 days). Response evaluation criteria in solid tumors (RECIST) tumor assessment via computed tomography (CT) or magnetic resonance imaging (MRI) scan of abdomen/pelvis and clinically indicated areas was required at the end of every 2-cycles (8-weeks with a window of 7 days from date of visit) through Cycle 14, then at the end of every 3-cycles (12-weeks with a window of 7 days from date of visit) until progression.
Patients were assessed by the prolongation of progression-free survival (PFS). […] Response Evaluation Criteria in Solid Tumors (RECIST) was used for tumor assessment via a computed tomography (CT) or magnetic resonance imaging (MRI) scan of abdomen/pelvis and clinically indicated areas, which was required at the end of every 2-cycles (8-weeks) through cycle 14 (56-weeks), and then at the end of every 3-cycles (12-weeks) until progression.
Following completion of the NOVA study, formalin-fixed, paraffin-embedded (FFPE) archival tumor samples from NOVA patients were retrospectively analyzed using a pre-specified gene panel. […]

[4] = tested on: MDA-MB-436, CAPAN-1, GRANTA-519, OVCAR3, HT29 and DLD-1, patient derived Ewing's sarcoma, and TNBC xenograft models; settings: xenograft models in mice; cited from earlier work
ovarian cancer patients = settings: cited from earlier work
[5] = tested on: patients with advanced BRCA-mutant ovarian cancer; settings: cited from earlier work
[6] = ATM bi-allelic mutant NSCLC PDX models
[7] = 106 patients, 600 mg orally twice daily

SMILES: Cc1ccc(S(=O)(=O)O)cc1.NC(=O)c1cccc2cn(-c3ccc([C@@H]4CCCNC4)cc3)nc12 [Niraparib, (3S)-3-[4-{7-(aminocarbonyl)-2H-indazol-2-yl}phenyl]piperidine]
- niraparib sensitivity based on total growth inhibition (TGI) [1]: strongest niraparib sensitivity
- anti-proliferative activity [2]: selective anti-proliferative activity
- PDX models with strong sensitivity, TGI>70% (HRR mutant PDX models; [6]): 33%
- PDX models with moderate sensitivity, TGI≥50% (HRR mutant PDX models; ATM bi-allelic mutant PDX models): 14%
- PDX models with TGI≥50% (HRR mutant PDX models; ATM monoallelic mutant PDX models): 0/6
- models sensitive with ≥50% TGI (HRR mutant PDX models; BAP bi-allelic mutations, across 5-tumor types): 36%
- PDX models with moderate sensitivity, ≥50% TGI (HRR mutant PDX models; BRCA1/2 bi-allelic mutant PDX models): 43%
- PDX models with moderate sensitivity, TGI≥50% (HRR mutant PDX models; BRCA2 bi-allelic mutant PDX models): 43%
- PDX models with >100% TGI (HRR mutant PDX models; OvCa PDX models): 80%
- PDX models with strong sensitivity (HRR mutant PDX models; PALB2 monoallelic mutant PDX models (1/6)): 17%
- niraparib sensitivity based on total growth inhibition (TGI) (HRR mutant PDX models; bi-allelic mutations in BRCA1, BRCA2, PALB2 and ATM (FIG. 4)): strongest niraparib sensitivity
- TGI (HRR mutant PDX models; sensitive PALB2 monoallelic mutant PDX model): 93%
- IC50 (PARP activity; read-out: IC50, PARP activity in cells): ~4 nM
- IC90 (PARP activity; read-out: inhibitory concentration at 90% of control (IC90), PARP activity in cells): ~50 nM
- models sensitive to niraparib (NSCLC PDX models; [6]): 2 out of 8
- models sensitive to niraparib (NSCLC PDX models; HRR WT NSCLC PDX models (3 out of 40)): 7.5%
- Median Progression Free Survival (PFS) ([3]; Non-tBRCA1/2 HRR mutant): 15.7
- Median Progression Free Survival (PFS) ([3]; tBRCA1/2 mutant): 15.4
- effectiveness of niraparib treatment ([3]; tBRCA wildtype patients with at least one mutation in 31 DDR gene panel compared to no mutation): similarly effective
- antitumor activity [4]: strong antitumor activity

SMILES: O=C(c1cc(Cc2n[nH]c(=O)c3ccccc23)ccc1F)N1CCN(C(=O)C2CC2)CC1 [olaparib, 4-[(3-{[4-(cyclopropylcarbonyl)piperazin-1-yl]carbonyl}-4-fluorophenyl)methyl]phthalazin-1(2H)-one]
- responses (ovarian cancer patients; in 17 patients with BRCA1 or BRCA2 mutations): 7 responses
- responses (ovarian cancer patients; in the 46 who did not have these mutations): 11 responses

SMILES: CNCc1ccc(-c2[nH]c3cc(F)cc4c3c2CCNC4=O)cc1 [rucaparib, 8-fluoro-2-{4-[(methylamino)methyl]phenyl}-1,3,4,5-tetrahydro-6H-azepino[5,4,3-cd]indol-6-one ((1S,4R)-7,7-dimethyl-2-oxobicyclo[2.2.1]hept-1-yl)methanesulfonic acid salt]
- Response assessment by independent radiology review [5, 7]: 42%
- median DOR [5, 7]: 6.7 months
- Investigator-assessed ORR ([5]; platinum-refractory patients): 0%
- Investigator-assessed ORR ([5]; platinum-resistant patients): 25%
- Investigator-assessed ORR ([5]; platinum-sensitive patients): 66%
